Counter-ions that a name gives are not always drawn. *1 amine or outer side, *2 acyl side, *3 side chain or, on linkers, in order; H or OH if unused. Where a SMILES comes first, the peptide text is derived from it. [ ]: non-standard residue; d: D form. γGlu = O=C(O)[C@H](CCC(=O)[*:2])N[*:1]
Experiments:
[1] = anti-odor test, panel by sniffing: thiol or similar malodor compound in anhydrous composition
Procedure: In the same manner, the degree of reducing the presence or preventing the production of malodor generated by a thiol or similar malodor compounds in an anhydrous composition containing a solvent or ingredient of the present embodiments was judged by three-member panel through olfactory sensor by sniffing as (a) no difference from control, (b) slight malodor, (c) trace malodor, and (d) no malodor. In an initial test, a solvent or liquid ingredient of the present embodiments at 4.5 ml was added to a test tube, and a thiol or similar malodor compounds 0.5 g was added to make 10% thiol or similar malodor compounds in the solution. The control solution was prepared by dissolving a thiol or similar malodor compounds 0.5 g in water 4.5 ml to make 10% aqueous solution. The above test solutions including the control solutions were judged by the panel for the anti-odor effect and the degree of reducing the presence or preventing the production of malodor was recorded in the same way as (a) no effect (no difference from control), (b) slight malodor (50% effective), (c) trace malodor (90% effective), and (d) no malodor (completely effective).

[2] = anti-odor test, panel by sniffing: N-acetyl-L-cysteine dissolved in a single solvent or liquid ingredient (anhydrous composition); conditions: for anti-odor effect: 10% N-acetyl-L-cysteine and 90% solvent or liquid ingredient
Procedure: An anti-odor test was carried out in an anhydrous solvent according to the following example. In a series of test tubes, 4.5 ml of a solvent was added to a test tube such that each test tube comprised a single solvent. The solvents added to the test tubes included water, ethanol, acetone, n-propanol, isopropyl alcohol, propylene glycol, butylenes glycol, benzyl alcohol, ethoxydiglycol, 2-ethyl-1,3-hexanediol. N-Acetyl-L-cysteine (MW 163) 0.5 g was then added and dissolved in each solvent. The test tubes were warmed slightly to enhance dissolution of N-acetyl-L-cysteine crystals. Each test tube contained 10% N-acetyl-L-cysteine and 90% solvent.
An anti-odor test was carried out in an anhydrous composition according to the following example. In a series of test tubes, 4.5 ml of a liquid ingredient was added to a test tube such that each test tube comprised a single liquid ingredient. The liquid ingredients added to a test tube included ethyl glycolate, ethyl-L-lactate, diethyl tartrate, triethyl citrate, tripropyl citrate, ethyl-DL-mandelate, benzyl N-acetyl-prolinate, ethyl N-acetyl-prolinate, propyl N-acetyl-prolinate. N-Acetyl-L-cysteine (MW 163) 0.5 g was then added and dissolved in each liquid ingredient. The test tubes were warmed slightly to enhance dissolution of N-acetyl-L-cysteine crystals. Each test tube contained 10% N-acetyl-L-cysteine and 90% liquid ingredient. The panel judged the anti-odor effect in each test tube.

[3] = panel sniff tests of solvents, ingredients and amines against thiol malodor (general statements); conditions: solvent or ingredient, based on the panel tests
Procedure: Initially, a malodor compound such as about 5% by weight was prepared in water solution or in oil-in-water emulsion. A sulfone or organic amine of the present embodiments was added at various concentrations for example, ranging from about 2%, 1%, 0.5% and 0.1% to the formulations containing the malodor substance. The composition containing the malodor substance without a sulfone or organic amine was used as the control.

[4] = 10% malodor compound in anhydrous solution of isopropyl alcohol 50 parts, diethyl tartarate 25 parts, triethyl citrate 25 parts v/v
[5] = 2% malodor compound in anhydrous solution of isopropyl alcohol 50 parts, diethyl tartarate 25 parts, triethyl citrate 25 parts v/v

| Compound | prevention of malodor produced by a thiol or similar malodor compounds [3] | anti-odor effect [2] [%] | other results |
| --- | --- | --- | --- |
| CCOC(=O)CNC(=O)[C@H](CS)NC(=O)CC[C@H](N)C(=O)OCC [L-Glutathione diethyl ester] | – | – | malodor as judged by panel [1, 4]: did not have any malodor |
| CCOC(=O)[C@H](CSC(C)=O)NC(C)=O [N,S-Diacetyl-L-cysteine ethyl ester] | – | – | malodor as judged by panel [1, 4]: did not have any malodor |
| COC(=O)[C@H](CSC(C)=O)NC(C)=O [N,S-Diacetyl-L-cysteine methyl ester] | – | – | malodor as judged by panel [1, 4]: did not have any malodor |
| CCOC(=O)CNC(=O)[C@H](CS)NC(=O)CC[C@H](NC(C)=O)C(=O)OCC [N-Acetyl-L-glutathione diethyl ester] | – | – | malodor as judged by panel [1, 4]: did not have any malodor; malodor as judged by panel ([1]; 10% malodor compound in diethyl tartarate, anhydrous): did not have any malodor |
| CC(=O)N[C@@H](CCC(=O)N[C@@H](CS)C(=O)NCC(=O)O)C(=O)O [N-Acetyl-L-glutathione] (Ac-[γGlu]-Cys-Gly-OH) | – | – | malodor as judged by panel [1, 5]: did not have any malodor |
| CCC(=O)N[C@@H](CS)C(=O)O [N-Propanoyl-L-cysteine] | – | – | malodor as judged by panel [1, 5]: did not have any malodor |
| OCCCCO [butylene glycol] | effectively prevent malodor | – | suppression of the malodor, judged by panel ([2]; 10% N-acetyl-L-cysteine and 90% solvent): did not suppress the malodor |
| CCOC(=O)C(O)C(O)C(=O)OCC (stereo not drawn) [diethyl tartrate] | effectively prevent malodor | 100 | – |
| CCOCCOCCO [ethoxydiglycol] | effectively prevent malodor | 100 | – |
| CCOC(=O)[C@@H]1CCCN1C(C)=O [ethyl N-acetyl-prolinate] | effectively prevent malodor | 100 | – |
| CCOC(=O)CO [ethyl glycolate] | effectively prevent malodor | 100 | – |
| CC(C)O [isopropyl alcohol] | effectively prevent malodor | 100 | – |
| CCCO [n-propanol] | effectively prevent malodor | 100 | – |
| CCCOC(=O)[C@@H]1CCCN1C(C)=O [propyl N-acetyl-prolinate] | effectively prevent malodor | 100 | – |
| CCOC(=O)CC(O)(CC(=O)OCC)C(=O)OCC [triethyl citrate] | effectively prevent malodor | 100 | – |
| CCCOC(=O)CC(O)(CC(=O)OCCC)C(=O)OCCC [tripropyl citrate] | effectively prevent malodor | 100 | – |

From patent US20060251597A1, “ANTI-ODOR COMPOSITIONS AND THERAPEUTIC USE” (priority 2005, published 2006)
